Experimental data published in patent US20070207993A1, “Molybdenum carbonyl complexes for treating rheumatoid arthritis and other inflammatory diseases” (Alfama - Investigacao e Desenvolvimetno De Productos …, priority 2005, published 2007).

Assay: CO release in vivo (CO-hemoglobin in blood by oximeter)
Conditions: Balb/c mice, intraperitoneal, 100, 25 and 6.25 mg/kg, propylene glycol-water; 0, 30, 120 (330) minutes
Description: Nine week old Balb/c mice with a body weight of about 20 g were injected by the intraperitoneal route with Compound I.1 dissolved in a propylene glycol-water mixture. Three doses (100, 25 and 6.25 mg/kg) were used. At various times after the administration of the Compound I.1 blood was collected and CO-hemoglobin levels were determined using an oximeter.
Compound I.1 was administered intraperitonally to mice at a concentration of 100 mg/kg using propylene glycol/water ca.˜2:1 as vehicle. The amount of COHb (carboxyhemoglobin) was monitored with an oximeter in blood samples withdrawn at 0, 30, 120 and 330 minutes after administration. The results are shown in FIG. 9 and show a peaked level of CO after 30 minutes followed by a slow decline.
Compound I.1 was encapsulated in methylated β-cyclodextrin, 2,3,6-tri-O-methyl-β-cyclodextrin, known in the art as TRIMEB, by a standard technique. The encapsulated Compound I.1@TRIMEB (“@” means “encapsulated in”) was administered intraperitonally to mice at a concentration of 30 mg/kg using phosphate buffered saline (PBS) as vehicle. The amount of COHb (carboxyhemoglobin) was monitored with an oximeter in blood samples withdrawn after 30, 60, 90 and 120 minutes after administration.

O=[C][Mo]([Br])([C]=O)([C]=O)([C]=O)[C]=O [Compound I.1]
CO-hemoglobin level time course: increase in CO levels during the first time interval, followed by a slow decline
